From publication PMC10630888, “Nuclear ERK1/2 signaling potentiation enhances neuroprotection and cognition via Importinα1/KPNA2” (EMBO Molecular Medicine, 2023)

Biological target: T1, ERK1/ERK2-KPNA5 interaction (Homo sapiens, UniProt O15131)
T1 construct: host or cells: HEK293
Assay: Proximity ligation assay, ERK1 or ERK2 with KPNA5 in HEK293 cells
Type: binding
Details: HEK293 cells pretreated with RB5 50 μM for 1 h
Experimental: 1.5 × 10^6 HEK293 cells were seeded onto coverslips in 60 mm dishes. 24 h later, transfection was carried out using calcium phosphate method. 0.5 μg of pCMVTNT‐T7‐KPNA1 (Addgene, #26677), 0.5 μg of pCMVTNT‐T7‐KPNA2 (Addgene, #26678), 0.5 μg of pCMVTNT‐T7‐KPNA3 (Addgene, #26679), 0.5 μg of pCMVTNT‐T7‐KPNA4 (Addgene, #26680), 0.5 μg of pCMVTNT‐T7‐KPNA5 (Addgene, #26681), 1.5 μg of pcDNA3.1+/C‐(K)‐DYK‐KPNA6 (Genscript, #OHu29951D), 0.5 μg of pCMVTNT‐T7‐KPNA7 (Addgene, #26683), 5 μg of pcDNA3.1 +/C‐(K)‐DYK‐IPO7 (Genscript, #OHu11630), 0.5 μg pCMV5‐3HA‐RanBP5 (MRC PPU, University of Dundee, #DU7262), 0.5 μg pCMV5‐3HA‐ KPNB1 (MRC PPU, University of Dundee, #DU5332) were mixed with one of the following plasmids: 0.01 μg of 277.pCCLsin.PPT.hPGK.GFP.PRE, 0.25 μg of 277.pCCLsin.PPT.hPGK.ERK1‐GFP.PRE or 0.25 μg of 277.pCCLsin.PPT.hPGK.ERK2‐GFP.PRE. After approximately 16 h, cell culture medium was replaced with fresh medium. On the following day, cells were washed three times in PBS and fixed in 4% PFA for 15 min. […]
The proximity ligation assay was carried out following the manufacturer's instructions. […] The number of GFP‐positive cells, DAPI‐stained cells, and red dots was counted manually using Fiji‐ImageJ software.

T1 sequence (O15131 whole entry): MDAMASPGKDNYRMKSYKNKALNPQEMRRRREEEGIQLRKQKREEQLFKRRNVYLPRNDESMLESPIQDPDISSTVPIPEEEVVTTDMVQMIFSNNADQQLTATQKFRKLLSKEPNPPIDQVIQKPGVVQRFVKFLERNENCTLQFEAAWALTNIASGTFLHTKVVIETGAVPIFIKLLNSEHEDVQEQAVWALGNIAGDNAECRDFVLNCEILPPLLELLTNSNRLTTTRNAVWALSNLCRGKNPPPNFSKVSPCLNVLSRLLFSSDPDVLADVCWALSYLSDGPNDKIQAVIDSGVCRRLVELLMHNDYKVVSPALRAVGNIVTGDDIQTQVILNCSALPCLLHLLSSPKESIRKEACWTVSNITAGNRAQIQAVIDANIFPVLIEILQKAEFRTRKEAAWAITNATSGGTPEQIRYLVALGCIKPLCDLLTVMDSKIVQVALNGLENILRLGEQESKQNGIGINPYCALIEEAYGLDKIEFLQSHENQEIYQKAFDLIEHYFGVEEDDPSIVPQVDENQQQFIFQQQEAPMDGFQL

GRKKRRQRRRPPQGGGGGEPRRTEGVGPGVPGEVEMVKGQPFDV [RB5, six D-amino acids, acetylated N-terminus]
ERK1 or ERK2 binding to KPNA5 (PLA): unaffected
